Experimental data published in ChEMBL document CHEMBL1147999, “Caffeoylglycolic and caffeoylamino acid derivatives, halfmers of L-chicoric acid, as new HIV-1 integrase inhibitors” (Eur J Med Chem, 2007).
The source made the active and inactive calls. The calls are words filed in the database; no cut-off is given here.

Columns and labels:
[1] = target: Human immunodeficiency virus type 1 integrase (Human immunodeficiency virus 1, UniProt Q7ZJM1); experiment: Inhibition of recombinant HIV1 integrase expressed in Escherichia coli
Sequence of Human immunodeficiency virus type 1 integrase (Q7ZJM1 whole entry): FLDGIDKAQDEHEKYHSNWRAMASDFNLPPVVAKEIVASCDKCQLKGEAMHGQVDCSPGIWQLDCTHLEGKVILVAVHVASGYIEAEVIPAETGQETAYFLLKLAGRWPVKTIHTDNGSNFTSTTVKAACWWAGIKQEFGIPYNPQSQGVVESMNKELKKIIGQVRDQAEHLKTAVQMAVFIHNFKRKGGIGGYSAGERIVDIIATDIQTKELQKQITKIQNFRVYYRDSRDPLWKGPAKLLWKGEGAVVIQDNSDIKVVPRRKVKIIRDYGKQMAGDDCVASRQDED

[2] = test system: Human immunodeficiency virus 1; experiment: Antiviral activity against HIV1 3B in MT4 cells at 200 uM; type: functional, organism-based
[3] = Human immunodeficiency virus 1, 3B

IC50 [1] [µM] | SMILES | other results
130 | CC(C)CC(NC(=O)/C=C/c1ccc(O)c(O)c1)C(=O)O (centres undefined) | –
128 | CC(OC(=O)/C=C/c1ccc(O)c(O)c1)C(=O)O (centres undefined) | Activity [2]: inactive
– | O=C(/C=C/c1ccc(O)c(O)c1)O[C@H](C(=O)O)[C@@H](OC(=O)/C=C/c1ccc(O)c(O)c1)C(=O)O | CC50 [2, 3]: > 42.2 µM; EC50 [2, 3]: 7.5 µM
148 | CC(NC(=O)/C=C/c1ccc(O)c(O)c1)C(=O)O (centres undefined) | –
> 300 | COc1cc(/C=C/C(=O)OCC(=O)O)ccc1O | –
> 300 | COc1ccc(/C=C/C(=O)OCC(=O)O)cc1OC | –
95 | O=C(/C=C/c1ccc(O)c(O)c1)NC(Cc1ccccc1)C(=O)O (centres undefined) | –
12 | O=C(/C=C/c1ccc(O)c(O)c1)NC(Cc1ccc(O)c(O)c1)C(=O)O (centres undefined) | Activity [2]: inactive
10.5 | O=C(O)COC(=O)/C=C/c1ccc(O)c(O)c1 | –
129 | O=C(/C=C/c1ccc(O)c(O)c1)NC(Cc1ccc(O)cc1)C(=O)O (centres undefined) | –
172 | O=C(O)CNC(=O)/C=C/c1ccc(O)c(O)c1 | –
